According to the NIST ThermoML archive (doi:10.1021/je049738c):

Tests used:
[1] = 298.15 K; 101.33 kPa; Liquid
[2] = molar heat capacity at constant pressure; conditions: 298.15 K; 101.33 kPa; Liquid; Flow calorimetry
[3] = xn = mol fraction of the nth substance listed; conditions: 298.15 K, 101.3 kPa, Liquid
[4] = heat capacity at constant pressure per volume; xn = mol fraction of the nth substance listed; conditions: 298.15 K, 101.3 kPa, Liquid, Flow calorimetry

CCCCO [butan-1-ol]
Conditions | mass density [kg/m3] | molar heat capacity at constant pressure [J/K/mol]
[1] | 805.62 | –
[2] | – | 177.1

CCCCO [butan-1-ol] + O
Conditions | heat capacity, [4] [J/K/m3] | mass density, [3] [kg/m3]
x1 = 0.001656 | 4176100 | 995.94
x1 = 0.003814 | 4186600 | 994.54
x1 = 0.005524 | 4195100 | 993.48
x1 = 0.006663 | 4200400 | 992.78
x1 = 0.009163 | 4213100 | 991.32
x1 = 0.01415 | 4239900 | 988.57
x1 = 0.01604 | 4251000 | 987.56

CCC(C)O (stereo unspecified) [butan-2-ol] + O
Conditions | heat capacity, [4] [J/K/m3] | mass density, [3] [kg/m3]
x1 = 0.001648 | 4177000 | 995.99
x1 = 0.00244 | 4181300 | 995.46
x1 = 0.003665 | 4188100 | 994.69
x1 = 0.006146 | 4201900 | 993.17
x1 = 0.006234 | 4202800 | 993.15
x1 = 0.008153 | 4213300 | 991.98
x1 = 0.009049 | 4218100 | 991.43
x1 = 0.01047 | 4226800 | 990.68
x1 = 0.01411 | 4248500 | 988.8
x1 = 0.01461 | 4251800 | 988.51
x1 = 0.01766 | 4270000 | 987

CCC(C)(C)O [2-methylbutan-2-ol]
Conditions | mass density [kg/m3] | molar heat capacity at constant pressure [J/K/mol]
[1] | 804.01 | –
[2] | – | 251.1

CC(C)CCO [3-methylbutan-1-ol]
Conditions | mass density [kg/m3] | molar heat capacity at constant pressure [J/K/mol]
[1] | 804.18 | –
[2] | – | 209.3

CCC(O)CC [3-pentanol]
Conditions | mass density [kg/m3] | molar heat capacity at constant pressure [J/K/mol]
[1] | 815.3 | –
[2] | – | 254.6

CCCC(C)O (stereo unspecified) [pentan-2-ol]
Conditions | mass density [kg/m3] | molar heat capacity at constant pressure [J/K/mol]
[1] | 804.55 | –
[2] | – | 235.3

CCCC(C)O (stereo unspecified) [pentan-2-ol] + O
Conditions | heat capacity, [4] [J/K/m3] | mass density, [3] [kg/m3]
x1 = 0.001235 | 4176700 | 996.1
x1 = 0.001831 | 4180800 | 995.66
x1 = 0.002163 | 4182900 | 995.4
x1 = 0.002785 | 4187300 | 994.95
x1 = 0.003519 | 4192400 | 994.4
x1 = 0.004937 | 4202200 | 993.42
x1 = 0.0059 | 4209100 | 992.73
x1 = 0.00695 | 4217100 | 992.05

CC(C)CO [2-methyl-1-propanol] + O
Conditions | heat capacity, [4] [J/K/m3] | mass density, [3] [kg/m3]
x1 = 0.001575 | 4175200 | 995.99
x1 = 0.00181 | 4176000 | 995.84
x1 = 0.003631 | 4184200 | 994.66
x1 = 0.006044 | 4195700 | 993.15
x1 = 0.009083 | 4209900 | 991.35
x1 = 0.01143 | 4220800 | 989.99
x1 = 0.01647 | 4247000 | 987.23

CC(C)CCO [3-methylbutan-1-ol] + O
Conditions | heat capacity, [4] [J/K/m3] | mass density, [3] [kg/m3]
x1 = 0.000488 | 4170700 | 996.67
x1 = 0.000691 | 4171700 | 996.51
x1 = 0.001002 | 4173400 | 996.29
x1 = 0.001048 | 4173600 | 996.22
x1 = 0.00119 | 4174300 | 996.13
x1 = 0.001204 | 4174400 | 996.13
x1 = 0.001362 | 4175200 | 995.99
x1 = 0.001742 | 4177100 | 995.68
x1 = 0.002039 | 4178600 | 995.47
x1 = 0.002063 | 4178800 | 995.45
x1 = 0.002225 | 4179800 | 995.36

CC(C)O [propan-2-ol] + O
Conditions | heat capacity, [4] [J/K/m3] | mass density, [3] [kg/m3]
x1 = 0.001072 | 4172300 | 996.38
x1 = 0.001923 | 4175600 | 995.85
x1 = 0.003078 | 4179900 | 995.16
x1 = 0.00413 | 4183900 | 994.53
x1 = 0.005976 | 4191200 | 993.44
x1 = 0.009312 | 4204200 | 991.51
x1 = 0.01437 | 4225200 | 988.91
x1 = 0.01665 | 4234700 | 987.73

CCC(C)O (stereo unspecified) [butan-2-ol]
Conditions | mass density [kg/m3] | molar heat capacity at constant pressure [J/K/mol]
[1] | 802.07 | –
[2] | – | 197.8

CCCCCO [pentan-1-ol]
Conditions | mass density [kg/m3] | molar heat capacity at constant pressure [J/K/mol]
[1] | 810.68 | –
[2] | – | 208.8

CC(C)(C)O [2-methylpropan-2-ol] + O
Conditions | heat capacity, [4] [J/K/m3] | mass density, [3] [kg/m3]
x1 = 0.000883 | 4173400 | 996.41
x1 = 0.001796 | 4178600 | 995.74
x1 = 0.002923 | 4185200 | 994.98
x1 = 0.004051 | 4192000 | 994.22
x1 = 0.006409 | 4206500 | 992.64
x1 = 0.00867 | 4220900 | 991.22
x1 = 0.01153 | 4239100 | 989.43
x1 = 0.01716 | 4276400 | 986.35

CCC(C)CO (stereo unspecified) [2-methyl-1-butanol]
Conditions | mass density [kg/m3] | molar heat capacity at constant pressure [J/K/mol]
[1] | 814.54 | –
[2] | – | 215
